The values that follow are results of earlier work, collected in patent publication US11925695B2, “Methods for making ultrasound contrast agents” (Lantheus Medical Imaging, Inc., priority 2016, dated 2024).

Like-named read-outs stand apart in the source and are kept apart here.

Assay in data set [1]: not given
The source holds these as a separate data set.

On to `CCCCCCCCCCCCCCCC(=O)OC[C@H](COP(=O)(O)OCCN)OC(=O)CCCCCCCCCCCCCCC` [DPPE, 1,2-dipalmitoyl-sn-glycero-3-phosphatidylethanolamine], for which the “pKa for the amine of the ethanolamine” value is listed as 9.3 and the “pKa for the hydroxyl of the phosphate” value is given as 1.9.

Consider `OCC(O)CO` [Glycerol, glycerol], for which the viscosity in data set [1] (at 15° C.) is given as 2200 cps.

Regarding `CC(O)CO` (centres unmarked) [Propylene glycol, propylene glycol], in data set [1] (at 25° C.), the viscosity is listed as 42 cps.

Regarding `O` [Water], the viscosity entry in data set [1] (at 15° C.) is on record as “approximately 1.14 cps”.
